Reference: patent publication US11331318B2, “Arterial oxygen saturation degree improver” (FURUKAWA RESEARCH OFFICE CO., LTD., priority 2017, dated 2022)

What was measured:
[1] = test system: ddY male mice; assay: Oxygen consumption during non-exercise in mice (reference example 1); type: in vivo, mouse; settings: 5 times a week for 4 weeks
Experimental: In order to verify whether orotic acid has an effect of decreasing the oxygen consumption during non-exercise or not, the following test was performed. Thirty-two ddY male mice (6-week old) bred in a thermostatic animal chamber of 24±2° C. for one week or more under a light-dark cycle of 12 hours (lighting from 8:00 to 20:00) were prepared. These mice were divided into two groups. Each mouse in one group (control group: CTL group) was administered with 0.5 mass % carboxymethyl cellulose solution (CMC solution) in an amount of 10 mL per 1 kg of mouse body weight. Each mouse in the other group (orotic acid administration group: OA group) was administered with orotic acid (50 mg/mL) suspended in 0.5 mass % CMC solution in an amount of 10 mL per 1 kg of mouse body weight. These administrations were performed 5 times a week for successive 4 weeks (20 times in total) for each mouse. Each mouse was transferred to a metabolism measurement chamber at 19:00 on the day of last administration to start fasting, and the oxygen consumption (VO2 [mL/min]) and carbon dioxide production volume (VCO2 [mL/min]) during the dark period from 20:00 to 8:00 on the following day were measured. […] In addition, the respiratory quotient (RER) of each mouse was calculated as a value obtained by dividing the carbon dioxide production volume by the oxygen consumption.

[2] = test system: male ddY mice; assay: Limit swimming time in mice (reference example 3); type: in vivo, mouse
Experimental: The endurance-enhancing effect was verified using orotic acid as a test substance. Seven-week old male ddY mice were purchased from Japan SLC, Inc. and were each acclimatized for 7 days and then forced to swim with a weight on the tail. When a mouse could not come up to the water surface and stayed under the surface of the water for 5 seconds, the time thereof was measured as the limit swimming time. The mice were divided into groups, such that there was no difference in limit swimming time between the groups, as follows: control group (CTL group, n=10), orotic acid 250 mg/kg administration group (OA 250 mg/kg group, n=10), and orotic acid 500 mg/kg administration group (OA 500 mg/kg group, n=10). The mice in each group were bred using roughage (CE-2), and the mice in OA 250 mg/kg group and OA 500 mg/kg group were orally administered with 250 mg/kg of orotic acid and 500 mg/kg of orotic acid, respectively, five times a week. After the grouping, the limit swimming time in each group was measured once a week while being bred for 3 weeks.

[3] = test system: person suspected of having sleep apnea syndrome (SAS); assay: SpO2 at apnea or hypopnea state in a person suspected of having sleep apnea syndrome; type: in vivo, human; settings: one tablet of orotic acid-containing throat candy at bedtime, oral absorption
From the text: A person suspected of having sleep apnea syndrome (SAS) ingested one tablet of the placebo throat candy manufactured in Example 3 at bedtime, and the maximum time of sleep apnea (a state in which breathing stops for 10 seconds of more) or hypopnea (a state in which ventilation by breathing falls to 50% or less for 10 seconds or more), which are detected with testing equipment for sleep apnea syndrome lent from a medical corporation Koshikai Ginza Yasue Clinic, and the SpO2 level at that time was measured two nights by the method in Example 1 (these levels are written by numerical numbers in the diagnostic results analyzed by the clinic software). The women then ingested one tablet of the orotic acid-containing throat candy manufactured in Example 3 at bedtime, and the maximum time of sleep apnea or hypopnea state and the SpO2 level at that time was measured by the same method as above two nights. In FIG. 6, the results in ingestion of one tablet of placebo throat candy are shown by round-shaped plots, and the results in ingestion of one tablet of orotic acid-containing throat candy are shown by diamond-shaped plots.

[4] = test system: healthy women performing bike exercise; assay: Change in plasma uric acid level after bike exercise (uricase-POD method); type: in vivo, human; settings: non-ingestion group increase of 0.2 mg/dL
Experimental: Six 22-year-old healthy women were divided into three groups of two. All the women were fasted for 24 hours (allowed only to drink water or tea), and two women of one group ingested one tablet of the orotic acid-containing throat candy (OA mouth-dissolving tablet), two women of another group ingested one tablet of the free form orotic acid monohydrate-containing tablets manufactured in Example 2 (OA tablet), and two women of the remaining group ingested one tablet of the placebo throat candy (non-ingestion), and the women performed bike exercise (exercise intensity: […]) for 30 minutes. Changes in energy consumption and changes in plasma uric acid level were measured at 2 hours, 3 hours, and 4 hours after completion of the exercise by the following measuring method. The uric acid concentrations (mg/dL) at immediately after completion of exercise and at 4 hours after completion of exercise were determined by allowing peroxidase (POD) to act on hydrogen peroxide (H2O2), generated by oxidative decomposition of uric acid in a sample by the action of uricase, in the presence of 4-aminoantipyrine (4-AA) and a color former for oxidative condensation to generate a quinone dye (uricase-POD method). The resulting quinone dye is colorimetrically measured to calculate the change in plasma uric acid level.

[5] = test system: ddY male mice; assay: Oxygen consumption during forced treadmill exercise in mice (reference example 2); type: in vivo, mouse; settings: 5 times a week for 3 weeks
Experimental: In order to verify whether orotic acid has an effect of decreasing the oxygen consumption during exercise or not, the following test was performed. Twenty-four ddY male mice (6-week old) bred in a thermostatic animal chamber of 24±2° C. for one week or more under a light-dark cycle of 12 hours (lighting from 8:00 to 20:00) were prepared. These mice were divided into two groups. Each mouse in one group, CTL group, was administered with 0.5 mass % CMC solution in an amount of 10 mL per 1 kg of mouse body weight. Each mouse in the other group, OA group, was administered with 50 mg/mL of orotic acid suspended in 0.5 mass % CMC solution in an amount of 10 mL per 1 kg of mouse body weight. These administrations were performed 5 times a week for successive 3 weeks (15 times in total) for each mouse. Fasting of each mouse was started at 17:00 on the day of last administration. The mice were subjected to forced exercise using a mouse treadmill from 10:00 on the following day, and the oxygen consumption and the carbon dioxide production volume during exercise were measured. Incidentally, the forced exercise was performed for 30 minutes in total at a speed of 15 m/min for first 5 minutes, at a speed of 20 m/min for the following 5 minutes, and then at a speed of 25 m/min for 20 minutes. […] In addition, the respiratory quotient of each mouse was calculated as a value obtained by dividing the carbon dioxide production volume by the oxygen consumption.

[6] = test system: human subjects in normobaric hypoxic room (oxygen concentration 12.4 to 12.7%); assay: SpO2 and heart rate in a normobaric hypoxic room before and after administration of orotic acid; type: in vivo
Experimental: A person (subject A) entered a normobaric hypoxic room (oxygen concentration: 12.4 to 12.7%, equivalent to that at an altitude of about 4000 m, 23° C.) of Miura Dolphins and was then administered with 400 mg of orotic acid by repeating twice a method (sublingual administration) in which a mixture (400 mg) of free form orotic acid (manufactured by Kyowa Hakko Bio Co., Ltd., 200 mg) and L-carnitine (manufactured by Lonza Japan Ltd., 200 mg) wrapped in wafer paper was placed under the tongue and allowed to stay in the mouth for at least 30 seconds, and the SpO2 and heart rate were measured using a pulse oximeter PULSOX-300i (manufactured by Konica Minolta, Inc.). Incidentally, in this example, carnitine was used for enhancing the solubility of orotic acid in water (absorbability into oral mucosa (see Japanese unexamined Patent Application Publication No. 2015-43743). Subject A was required not to consciously change their breathing after entering the room. Three subjects ([subject A: the same subject as that Example 1], [subject B], and [subject C]) were subjected to a test according to the method described in [Test method 1] above. Subject A was subjected to examination of swallowing (oral administration) two tablets each containing 200 mg of free form orotic acid monohydrate (manufactured by Kyowa Hakko Bio Co., Ltd.) (400 mg of orotic acid in total) for comparison with sublingual administration. In this test, the oxygen concentration in the room was stable within a range of 12.4% to 12.7% throughout the test period.

[7] = test system: healthy women performing bike exercise; assay: Change in energy consumption after bike exercise; type: in vivo, human; settings: one tablet (200 mg) before exercise
Experimental: Six 22-year-old healthy women were divided into three groups of two. All the women were fasted for 24 hours (allowed only to drink water or tea), and two women of one group ingested one tablet of the orotic acid-containing throat candy (OA mouth-dissolving tablet), two women of another group ingested one tablet of the free form orotic acid monohydrate-containing tablets manufactured in Example 2 (OA tablet), and two women of the remaining group ingested one tablet of the placebo throat candy (non-ingestion), and the women performed bike exercise (exercise intensity: […]) for 30 minutes. Changes in energy consumption and changes in plasma uric acid level were measured at 2 hours, 3 hours, and 4 hours after completion of the exercise by the following measuring method. Exhalation was analyzed at immediately after completion of exercise and at 2 hours, 3 hours, and 4 hours after completion of exercise with AERO MONITOR AE 300S manufactured by Minato Medical Science Co., Ltd. Oxygen uptake volume and carbon dioxide production volume were measured, and the energy consumption (kcal/day) was determined by the following expression (1) to calculate the change in energy consumption. Energy consumption (kcal/day)=(3.9×oxygen uptake volume)+(1.1×carbon dioxide production volume) (1) Method for Measuring Change in Plasma Uric Acid Level

With `O=C(O)c1cc(=O)[nH]c(=O)[nH]1` [orotic acid] the “respiratory quotient (RER) compared to control group” value [1] was “not a significant difference”, the “carbon dioxide production volume (VCO2) compared to control group” value ([1]; dark period) was “significantly decreased” and the “oxygen consumption (VO2) compared to control group” value ([1]; dark period, orotic acid 50 mg/mL suspension 10 mL/kg) was “significantly decreased”. For the same compound, the “effect of oral administration on the day of administration or within one week” value ([2]; experiments using mice, oral administration, at least three weeks needed for a significant difference) was “not observed”, the limit swimming time ([2]; oral 250 mg/kg and 500 mg/kg, five times a week, 3 weeks) was “prolonged depending on the dose of orotic acid” and the “SpO2 level at the same apnea time, compared with no orotic acid (placebo throat candy)” value [3] was “higher than that when orotic acid was not ingested”. The “change of uric acid concentration between immediately after exercise and 4 hours after exercise (decrease)” value ([4]; orotic acid ingested by oral absorption as throat candy) was 0.05 mg/dL, the “change of uric acid concentration between immediately after exercise and 4 hours after exercise (increase)” value ([4]; orotic acid ingested by oral administration) was 0.1 mg/dL and the “carbon dioxide production volume (VCO2) compared to control group” value [5] was “significantly decreased”. The “respiratory quotient (RER) compared to control group” value [5] was “not a significant difference”, the “oxygen consumption (VO2) compared to control group” value ([5]; orotic acid 50 mg/mL suspension 10 mL/kg) was “significantly decreased” and the heart rate ([6]; subject A, 400 mg oral) was “did not have a considerable irregularity in heart rate”. For the same compound, the “sense of discomfort felt to be caused by hypoxia” value ([6]; subject A, 400 mg oral) was “merely slightly improved”, the “recovery of SpO2 level after oral administration” value ([6]; subject A, 400 mg oral (two swallowed tablets of free form orotic acid monohydrate), SpO2 decreased to 84%) was “hardly recovered” and the “SpO2 level about 30 minutes after sublingual administration” value ([6]; subject A, 400 mg orotic acid sublingual (mixed with L-carnitine, in wafer paper), SpO2 83% to 84% before administration) was 88%. The “SpO2 level stably maintained until leaving the room” value ([6]; subject A, 400 mg sublingual) was “about 88%”, the heart rate ([6]; subject A, 400 mg sublingual) was “no considerable irregularity in heart rate” and the “sense of discomfort felt to be caused by hypoxia” value ([6]; subject A, 400 mg sublingual) was “disappeared soon after ingestion of orotic acid”. The “time for which the increased SpO2 level was stably maintained” value ([6]; subject A, 400 mg sublingual, until leaving the room) was “at least 5 hours”, the “heart rate before and after administration” value ([6]; subject B, 400 mg sublingual) was “hardly changed” and the “symptoms such as light sleepiness and reduced concentration” value ([6]; subject B, 400 mg sublingual) was “cancelled”. The “SpO2 level recovered after sublingual administration” value ([6]; subject B, 400 mg sublingual, SpO2 82% before, increased at about 30 minutes after administration) was 86%, the “symptoms of altitude sickness, such as headache and bad feeling” value ([6]; subject C, 200 mg sublingual) was “disappeared” and the “SpO2 level recovered after sublingual administration” value ([6]; subject C, 200 mg sublingual at 2 hours and 40 minutes after entering the room) was “higher than 80%”. The “recovery of SpO2 level” value ([6]; subject C, 400 mg swallowed before dissolution of wafer paper (same as oral administration), SpO2 decreased to 70%) was “no recovery in the SpO2 level was observed”, the “decrease in energy consumption at 2, 3 and 4 hours after bike exercise compared to immediately after exercise” value ([7]; oral absorption as throat candy) was “remarkable compared to that when orotic acid was ingested by oral administration” and the “energy consumption at 2, 3 and 4 hours after bike exercise compared to immediately after exercise” value ([7]; oral administration) was “decreased”.
